The text below walks through data of publication PMC8069166, “Identification of a Prenyl Chalcone as a Competitive Lipoxygenase Inhibitor: Screening, Biochemical Evaluation and Molecular Modeling Studies” (Molecules, 2021).

Structures are written as SMILES. “Also recorded” adds a separate entry of the source. Like-named read-outs stand apart in the source and are kept apart here. Some results are limits rather than exact numbers.

For data set [1], the target named is T1, LOX-1 (Glycine max, UniProt P08170).
T1 sequence (P08170 1-839): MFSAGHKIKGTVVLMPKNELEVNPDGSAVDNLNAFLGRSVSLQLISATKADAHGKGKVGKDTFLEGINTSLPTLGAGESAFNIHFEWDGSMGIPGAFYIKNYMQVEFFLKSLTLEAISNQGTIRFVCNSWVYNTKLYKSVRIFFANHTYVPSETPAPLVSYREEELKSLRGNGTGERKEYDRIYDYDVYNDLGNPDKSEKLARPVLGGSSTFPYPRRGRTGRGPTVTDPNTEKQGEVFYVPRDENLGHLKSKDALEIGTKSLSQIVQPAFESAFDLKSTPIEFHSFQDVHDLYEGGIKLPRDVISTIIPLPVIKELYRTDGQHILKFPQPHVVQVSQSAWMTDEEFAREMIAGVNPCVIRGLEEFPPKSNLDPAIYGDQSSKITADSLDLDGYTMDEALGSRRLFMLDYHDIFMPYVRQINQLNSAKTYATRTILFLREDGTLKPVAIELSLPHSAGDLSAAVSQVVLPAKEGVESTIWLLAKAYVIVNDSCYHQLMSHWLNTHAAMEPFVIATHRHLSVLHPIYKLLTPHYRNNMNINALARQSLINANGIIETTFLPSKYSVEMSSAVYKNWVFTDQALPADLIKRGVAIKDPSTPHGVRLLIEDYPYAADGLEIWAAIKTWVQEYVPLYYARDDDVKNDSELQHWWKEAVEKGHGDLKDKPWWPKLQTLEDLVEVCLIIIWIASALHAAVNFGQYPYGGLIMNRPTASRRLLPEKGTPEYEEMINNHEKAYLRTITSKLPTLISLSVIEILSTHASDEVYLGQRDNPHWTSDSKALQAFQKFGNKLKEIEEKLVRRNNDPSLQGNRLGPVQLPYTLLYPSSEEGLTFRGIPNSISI
In words: Oxygen consumption by the catalytic activity of LOX (polarography, O2-selective electrode). Format: biochemical, soybean (Glycine max). Conditions: compound at 10 µM, 25 °C.
From the text: A polarography-based assay was used to evaluate the rate of the oxygen consumption during LOX-1 inhibition, during which oxygen consumption is associated with the formation of a hydroperoxyl group [28]. In order to evaluate the decrease in oxygen consumption upon LOX-1 inhibition by the prenyl chalcone 6, an O2-selective electrode coupled to an oxygen monitoring probe was employed. […] The oxygen consumption was monitored using an O2-selective electrode coupled to a YSI 5300 Oxygen Monitor (Yellow Springs, OH, USA) at 25 °C. The reactions were initiated by adding O2 (100 μM), followed by the addition of LOX (20 nM) in 0.1 M Phosphate buffered saline (PBS), with pH 7.4 at 25 °C and the compounds being tested [32].

For data set [2] the following is noted: cited from earlier work.
Data set [3] addresses T2, soybean lipoxygenase-1 (LOX-1) (Glycine max, UniProt P08170).
T2 construct: purchased Sigma-Aldrich, Brazil
T2 sequence (P08170 1-839): T1 sequence (P08170 1-839)
In words: LOX-1 inhibition, spectrophotometric assay of conjugated diene formed by linoleic acid oxidation. The format is biochemical. The procedure: For the in vitro screening to identify the inhibitors of the enzymatic activity of LOX-1, a spectrophotometric assay was employed in order to measure the conjugated diene formed by linoleic acid oxidation. Soybean LOX-1, which converts linoleic acid to 13-hydroperoxylinoleic acid, is inhibited by NSAIDs in a qualitatively similar way to that of the rat mast cell line 5-LOX, and it may be used as a reliable screening target for this activity. The screening was performed with compounds from Brazilian biodiversity (NuBBEDB) and synthetic derivatives previously synthesized by using natural products as models. In this context, a variety of natural products were evaluated, such as triterpenes, chalcones, casearins, alkaloids, guanidines, and flavonoids.
(§1) The ability of chalcones 1–6 to act as LOX-1 inhibitors was evaluated according to a method from Ha et al. (2004). Initially, 2.910 mL Tris-HCl buffer ([…] (pH 8.0), Sigma-Aldrich, Brazil) was added to a quartz cuvette, followed by the addition of 25 μL LOX-1 (final concentration 1 μM, Sigma-Aldrich, Brazil) and 10 μL of the compounds tested (the final concentration ranged from 1 to 20 μM). The solution was incubated for 5 min at 25 °C. The reaction was started with the addition of linoleic acid (55 μL, 1 mM, Sigma-Aldrich, Brazil), and the LOX-1 activity was monitored at λ = 221 nm, pH 8.0, and 25 °C by an absorbance spectrophotometer in UV-Vis (Perkin Elmer Lambda 22, Waltham, MA, USA). For the determination of KM, varying substrate concentrations were used (linoleic acid, 13.7–91.7 µM) and 1 µM LOX-1. […] The spectrophotometric measurements at λ = 221 nm are associated with the conjugated double bonds formed from the linoleic acid substrate.

The target in data set [4] is T1, LOX-1. Nature of the data set: Enzyme kinetics, mechanism of LOX-1 inhibition. Format: biochemical, soybean (Glycine max). The method, then: as §1
[5] abbreviates: LOX-1 1 µM, linoleic acid substrate, pH 8.0, 25 °C, mean and standard deviation of three independent experiments, read-out: IC50 for the inhibition of lipoxygenase-1.

For orientation: IC50 means the concentration that gives 50% inhibition. What is called Ki is the dissociation constant of the complex between target and ligand, obtained from inhibition or displacement. Low readings indicate tighter binding, high ones weaker binding.

`CC(Cc1ccc(O)c(O)c1)C(C)Cc1ccc(O)c(O)c1` (stereo not shown) [Nordihydroguaiaretic acid (NDGA), Nordihydroguaiaretic acid, reference compound]: the “oxygen consumption during LOX-1 catalysis” value on LOX-1 [1] was “lower rate of oxygen consumption”. Moreover, the “toxicity on long-term use” value in data set [2] is “liver damage and kidney dysfunction”.
On to `CC(C)=CCC/C(C)=C/CC/C(C)=C/COc1ccccc1/C=C/C(=O)c1ccccc1` [Compound 6, (E)-2-O-farnesyl chalcone], for which the IC50 in data set [3] (setting [5]) is 5.7 ± 0.8 µM. The “fold more potent in LOX-1 inhibition than 2-O-prenyl chalcone (4)” value in data set [3] (ratio of IC50 values, versus compound 4) was more than 10 fold. In addition, the results for the “oxygen consumption during LOX-1 catalysis” value on LOX-1 [1] and on LOX-1 [1] (listed as (E)-2-O-farnesyl chalcone) were “delay of the oxygen consumption; also recorded: lower rate of oxygen consumption” and “decreased the rate of oxygen consumption”, respectively. Also, the mechanism of inhibition entry on LOX-1 [4] (LOX-1, enzyme kinetics) was “competitive”. The molecule also yielded a Ki on LOX-1 [4] (increasing concentrations of 6 (5–10 µM), linoleic acid substrate) of 7 µM.
With `CC(C)=CCOc1ccccc1/C=C/C(=O)c1ccccc1` [Compound 4, 2-O-prenyl chalcone], the IC50 in data set [3] (setting [5]) is more than 50 µM.
In the case of `O=C(/C=C/c1ccccc1O)c1ccccc1` [Compound 1], in data set [3] (setting [5]), the IC50 is more than 50 µM.
Take `CC(C)=CCC/C(C)=C/COc1cccc(/C=C/C(=O)c2ccccc2)c1` [Compound 5, 3-O-geranyl chalcone]: the IC50 in data set [3] (setting [5]) is 11.8 ± 0.9 µM.
In turn, `O=C(/C=C/c1ccc(O)cc1)c1ccccc1` [Compound 3, (E)-4-hydroxychalcone] had an IC50 in data set [3] of more than 50 µM.
`O=C(/C=C/c1cccc(O)c1)c1ccccc1` [Compound 2]: the IC50 in data set [3] (setting [5]) is more than 50 µM.
